Reference: patent US12435046B2, “Alkynyl quinazoline compounds” (Black Diamond Therapeutics, Inc., priority 2019, dated 2025)

What was measured:
Assay type in all cases: cell-based
Conditions in all cases: Table A; BaF3 cells, 3 days
[1] = biological target: T1, EGFR wt (Homo sapiens, UniProt P00533); experiment: BaF3 cell proliferation assay (CellTiterGlo), EGFR wt
T1 construct: expressed in transfected cells; host or cells: BaF3 (murine pro-B) cells, retroviral transduction with pMXs-IRES-Blasticidin
Method in brief: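 BaF3 cells engineered by retroviral transduction to express EGFR and selected for blasticidin resistance and IL-3 independent growth were suspended at 1.3E5 c/ml in RPMI with 10% heat inactivated FBS, 2% L-glutamine and 1% Pen/Strep. They were plated in triplicate in 96 well plates and exposed to vehicle or varying drug concentrations for 3 days. Viability was quantified by CellTiterGlo ATP luminescence, normalized to vehicle, and curves fitted in PRISM.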

[2] = biological target: T2, EGFR V3 (Homo sapiens, UniProt P00533, DELINS30-297G); experiment: BaF3 cell proliferation assay (CellTiterGlo), EGFR V3
T2 construct: expressed in transfected cells; host or cells: BaF3 (murine pro-B) cells, retroviral transduction with pMXs-IRES-Blasticidin
Method in brief: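 BaF3 cells made IL-3-independent by retroviral expression of each EGFR or HER2 mutant were treated in triplicate with compound for 72 h. Viability was read by CellTiterGlo ATP luminescence and normalised to vehicle, and EC50 was fitted from dose-response curves.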

[3] = biological target: T3, EGFR SVD (Homo sapiens, UniProt P00533, INS770SVD); experiment: BaF3 cell proliferation assay (CellTiterGlo), EGFR SVD
T3 construct: expressed in transfected cells; host or cells: BaF3 (murine pro-B) cells, retroviral transduction with pMXs-IRES-Blasticidin
Description: (§1) Retroviral Production: EGFR mutants were subcloned into pMXs-IRES-Blasticidin (RTV-016, Cell Biolabs, San Diego, CA). Retroviral expression vector retrovirus was produced by transient transfection of HEK 293T cells with the retroviral EGFR mutant expression vector pMXs-IRES-Blasticidin (RTV-016, Cell Biolabs), pCMV-Gag-Pol vector and pCMV-VSV-G-Envelope vector. Briefly, HEK 293T/17 cells were plated in 100 mm collagen coated plate (354450, Corning Life Sciences, Tewksbury, MA) (4×10^5 per plate) and incubated overnight. The next day, retroviral plasmids (3 ng of EGFR mutant, 1.0 ng of pCMV-Gag-Pol and 0.5 ng pCMV-VSV-G) were mixed in 500 n1 of Optimem (31985, Life Technologies). The mixture was incubated at room temperature for 5 min and then added to Optimem containing transfection reagent Lipofectamine (11668, Invitrogen) and incubated for 20 minutes. Mixture was then added dropwise to HEK 293T cells. The next day the medium was replaced with fresh culture medium and retrovirus was harvested @ 24 and 48 hrs.
(§2) Generation of EGFR mutant stable cell lines: BaF3 cells (1.5E5 cells) were infected with 1 ml of viral supernatant supplemented with 8 ng/ml polybrene by centrifuging for 30 min at 1000 rpm. Cells were placed in a 37° C. incubator overnight. Cells were then spun for 5 minutes to pellet the cells. Supernatant was removed and cells re-infected a fresh 1 ml of viral supernatant supplemented with 8 ng/ml polybrene by centrifuging for 30 min at 1000 rpm. Cells were placed in 37° C. incubator overnight. Cells were then maintained in RPMI containing 10% Heat Inactivated FBS, 2% L-glutamine containing 10 ng/ml IL-3. After 48 hours cells were selected for retroviral infection in 10 […] for one week. Blasticidin resistant populations were washed twice in phosphate buffered saline before plating in media lacking IL-3 to select for IL-3 independent growth.
(§3) Assay for cell proliferation: BaF3 cell lines were resuspended at 1.3E5 c/ml in RPMI containing 10% Heat Inactivated FBS, 2% L-glutamine and 1% Pen/Strep and dispensed in triplicate (17.5E4 c/well) into 96 well plates. To determine the effect of drug on cell proliferation, cells incubated for 3 days in the presence of vehicle control or test drug at varying concentrations. Inhibition of cell growth was determined by luminescent quantification of intracellular ATP content using CellTiterGlo (Promega), according to the protocol provided by the manufacturer. Comparison of cell number on day 0 versus 72 hours post drug treatment was used to plot dose-response curves. The number of viable cells was determined and normalized to vehicle-treated controls. Inhibition of proliferation, relative to vehicle-treated controls was expressed as a fraction of 1 and graphed using PRISM® software (Graphpad Software, San Diego, CA). EC50 values were determined with the same application.

[4] = biological target: T4, EGFR NPH (Homo sapiens, UniProt P00533, INS773NPH); experiment: BaF3 cell proliferation assay (CellTiterGlo), EGFR NPH
T4 construct: expressed in transfected cells; host or cells: BaF3 (murine pro-B) cells, retroviral transduction with pMXs-IRES-Blasticidin
Description: as §1, §2, §3

[5] = biological target: T5, HER2 S310F (Homo sapiens, UniProt P04626, S310F); experiment: BaF3 cell proliferation assay (CellTiterGlo), HER2 S310F
T5 construct: expressed in transfected cells; host or cells: BaF3 (murine pro-B) cells

[6] = biological target: T6, HER2 YVMA (Homo sapiens, UniProt P04626, INS775YVMA); experiment: BaF3 cell proliferation assay (CellTiterGlo), HER2 YVMA
T6 construct: expressed in transfected cells; host or cells: BaF3 (murine pro-B) cells

T1 sequence (P00533 25-1210): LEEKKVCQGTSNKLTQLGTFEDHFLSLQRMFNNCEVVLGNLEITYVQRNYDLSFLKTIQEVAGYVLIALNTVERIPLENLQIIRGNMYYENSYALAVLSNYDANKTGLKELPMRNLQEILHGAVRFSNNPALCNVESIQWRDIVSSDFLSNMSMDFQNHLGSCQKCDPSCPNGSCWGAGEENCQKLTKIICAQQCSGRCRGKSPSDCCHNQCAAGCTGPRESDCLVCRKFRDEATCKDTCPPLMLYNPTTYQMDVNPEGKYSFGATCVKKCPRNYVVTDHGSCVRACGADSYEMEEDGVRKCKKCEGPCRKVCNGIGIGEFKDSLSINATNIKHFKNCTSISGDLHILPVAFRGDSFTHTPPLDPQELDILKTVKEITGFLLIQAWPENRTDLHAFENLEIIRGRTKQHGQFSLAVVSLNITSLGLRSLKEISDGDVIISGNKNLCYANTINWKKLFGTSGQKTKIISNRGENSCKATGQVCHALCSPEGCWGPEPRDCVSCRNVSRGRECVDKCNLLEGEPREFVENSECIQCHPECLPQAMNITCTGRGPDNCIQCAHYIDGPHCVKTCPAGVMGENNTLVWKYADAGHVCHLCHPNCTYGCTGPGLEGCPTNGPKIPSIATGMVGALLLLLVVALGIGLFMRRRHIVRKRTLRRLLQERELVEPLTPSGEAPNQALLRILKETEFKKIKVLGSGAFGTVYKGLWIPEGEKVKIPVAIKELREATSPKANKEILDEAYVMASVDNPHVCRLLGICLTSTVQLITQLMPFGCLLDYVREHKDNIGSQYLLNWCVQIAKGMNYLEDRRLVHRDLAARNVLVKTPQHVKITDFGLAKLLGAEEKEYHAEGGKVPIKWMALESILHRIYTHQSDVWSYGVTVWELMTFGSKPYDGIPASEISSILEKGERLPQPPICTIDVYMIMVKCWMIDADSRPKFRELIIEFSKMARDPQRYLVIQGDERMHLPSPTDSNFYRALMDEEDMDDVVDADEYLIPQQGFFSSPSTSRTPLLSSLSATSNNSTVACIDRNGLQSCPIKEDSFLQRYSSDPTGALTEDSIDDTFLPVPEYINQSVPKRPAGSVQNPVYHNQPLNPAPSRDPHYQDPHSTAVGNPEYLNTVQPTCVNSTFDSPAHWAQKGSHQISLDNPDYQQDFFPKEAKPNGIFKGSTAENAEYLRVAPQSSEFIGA
T2 sequence (P00533 with tags, fused parts or gaps DELINS30-297G): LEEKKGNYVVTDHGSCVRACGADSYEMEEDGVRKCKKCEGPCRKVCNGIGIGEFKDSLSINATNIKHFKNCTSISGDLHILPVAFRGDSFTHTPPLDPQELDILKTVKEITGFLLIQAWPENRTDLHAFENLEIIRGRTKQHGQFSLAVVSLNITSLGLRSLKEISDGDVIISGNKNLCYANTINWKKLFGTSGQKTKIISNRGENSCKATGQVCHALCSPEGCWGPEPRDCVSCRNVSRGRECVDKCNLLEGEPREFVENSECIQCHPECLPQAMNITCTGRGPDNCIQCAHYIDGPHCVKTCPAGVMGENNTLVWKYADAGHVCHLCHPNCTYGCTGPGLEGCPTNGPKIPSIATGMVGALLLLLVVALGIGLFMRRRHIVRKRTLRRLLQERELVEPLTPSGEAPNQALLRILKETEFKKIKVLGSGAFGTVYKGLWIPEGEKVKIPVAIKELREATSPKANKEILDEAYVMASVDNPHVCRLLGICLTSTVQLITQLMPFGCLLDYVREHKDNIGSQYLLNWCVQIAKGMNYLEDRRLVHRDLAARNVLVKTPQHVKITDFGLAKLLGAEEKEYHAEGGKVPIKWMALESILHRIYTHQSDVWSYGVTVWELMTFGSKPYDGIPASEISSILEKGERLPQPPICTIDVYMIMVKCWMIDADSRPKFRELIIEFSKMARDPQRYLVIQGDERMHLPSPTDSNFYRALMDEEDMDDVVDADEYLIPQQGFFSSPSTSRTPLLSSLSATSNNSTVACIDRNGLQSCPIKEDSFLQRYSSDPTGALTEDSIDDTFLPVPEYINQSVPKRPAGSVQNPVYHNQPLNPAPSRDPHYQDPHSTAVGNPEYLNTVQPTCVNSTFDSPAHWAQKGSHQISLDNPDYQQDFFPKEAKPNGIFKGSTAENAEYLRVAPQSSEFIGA
T5 sequence (P04626 23-1255 S310F): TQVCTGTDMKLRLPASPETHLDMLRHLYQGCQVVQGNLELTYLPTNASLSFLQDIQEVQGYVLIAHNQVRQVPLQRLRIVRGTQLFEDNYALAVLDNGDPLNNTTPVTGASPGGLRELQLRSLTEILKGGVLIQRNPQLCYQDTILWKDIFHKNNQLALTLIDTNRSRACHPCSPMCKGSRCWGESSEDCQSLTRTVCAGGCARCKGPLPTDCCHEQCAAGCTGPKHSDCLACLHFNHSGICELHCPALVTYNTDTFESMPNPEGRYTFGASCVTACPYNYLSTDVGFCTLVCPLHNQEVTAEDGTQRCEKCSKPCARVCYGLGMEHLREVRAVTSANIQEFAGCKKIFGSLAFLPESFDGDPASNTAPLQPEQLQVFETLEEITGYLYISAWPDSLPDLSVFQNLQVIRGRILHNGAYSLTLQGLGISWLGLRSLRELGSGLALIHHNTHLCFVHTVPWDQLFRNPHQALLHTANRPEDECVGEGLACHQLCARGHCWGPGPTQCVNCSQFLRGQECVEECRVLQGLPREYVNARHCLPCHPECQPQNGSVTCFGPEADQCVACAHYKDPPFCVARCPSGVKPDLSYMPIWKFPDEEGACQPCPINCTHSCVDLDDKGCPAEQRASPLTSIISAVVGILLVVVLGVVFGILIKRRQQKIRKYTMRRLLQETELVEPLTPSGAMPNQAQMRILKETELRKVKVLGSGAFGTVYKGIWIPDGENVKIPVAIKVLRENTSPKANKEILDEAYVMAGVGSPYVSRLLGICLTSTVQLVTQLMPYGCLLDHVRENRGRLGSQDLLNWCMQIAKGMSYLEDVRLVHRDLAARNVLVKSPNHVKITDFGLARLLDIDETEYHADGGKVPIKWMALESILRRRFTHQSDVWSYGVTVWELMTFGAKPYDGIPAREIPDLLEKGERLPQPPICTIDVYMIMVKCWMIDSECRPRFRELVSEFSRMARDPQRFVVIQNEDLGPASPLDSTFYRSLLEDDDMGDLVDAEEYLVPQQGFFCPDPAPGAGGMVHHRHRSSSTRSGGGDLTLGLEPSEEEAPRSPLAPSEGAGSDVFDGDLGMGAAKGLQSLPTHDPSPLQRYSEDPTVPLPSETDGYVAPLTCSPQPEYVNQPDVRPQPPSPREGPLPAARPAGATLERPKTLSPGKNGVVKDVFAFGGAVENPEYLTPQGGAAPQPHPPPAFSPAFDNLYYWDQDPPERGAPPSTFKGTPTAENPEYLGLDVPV
T3 sequence (P00533 with tags, fused parts or gaps INS770SVD): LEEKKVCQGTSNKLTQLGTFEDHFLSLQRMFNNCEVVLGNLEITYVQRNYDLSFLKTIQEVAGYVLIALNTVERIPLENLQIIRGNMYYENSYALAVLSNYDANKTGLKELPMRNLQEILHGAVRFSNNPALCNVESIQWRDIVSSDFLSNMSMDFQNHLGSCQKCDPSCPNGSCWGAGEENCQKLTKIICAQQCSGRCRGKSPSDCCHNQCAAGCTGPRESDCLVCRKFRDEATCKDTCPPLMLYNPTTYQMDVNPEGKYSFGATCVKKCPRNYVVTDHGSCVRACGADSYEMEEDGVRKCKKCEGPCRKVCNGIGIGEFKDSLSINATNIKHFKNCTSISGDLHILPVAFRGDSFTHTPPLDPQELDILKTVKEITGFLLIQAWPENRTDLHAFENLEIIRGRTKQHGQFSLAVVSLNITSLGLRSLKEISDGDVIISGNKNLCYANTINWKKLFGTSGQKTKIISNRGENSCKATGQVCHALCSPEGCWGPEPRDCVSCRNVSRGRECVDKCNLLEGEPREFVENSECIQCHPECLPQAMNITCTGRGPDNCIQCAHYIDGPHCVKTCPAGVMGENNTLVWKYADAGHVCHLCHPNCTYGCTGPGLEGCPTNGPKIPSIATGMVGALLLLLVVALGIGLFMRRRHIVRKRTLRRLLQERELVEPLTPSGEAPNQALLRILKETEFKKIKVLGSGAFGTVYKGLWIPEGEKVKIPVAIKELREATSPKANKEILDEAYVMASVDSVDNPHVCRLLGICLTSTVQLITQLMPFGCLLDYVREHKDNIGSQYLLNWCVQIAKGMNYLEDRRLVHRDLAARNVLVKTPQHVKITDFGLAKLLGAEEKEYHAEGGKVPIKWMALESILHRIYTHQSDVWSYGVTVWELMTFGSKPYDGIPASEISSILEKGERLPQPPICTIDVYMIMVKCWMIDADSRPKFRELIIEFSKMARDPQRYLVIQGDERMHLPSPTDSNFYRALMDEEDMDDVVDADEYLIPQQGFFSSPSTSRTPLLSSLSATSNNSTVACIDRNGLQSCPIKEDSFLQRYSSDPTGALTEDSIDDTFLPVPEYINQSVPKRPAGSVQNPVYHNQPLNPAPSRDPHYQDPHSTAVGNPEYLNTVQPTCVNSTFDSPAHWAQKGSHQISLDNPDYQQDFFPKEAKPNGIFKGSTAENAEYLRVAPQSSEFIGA

Row | IC50 [1] | IC50 [2] | IC50 [3] | IC50 [4] | IC50 [5] | IC50 [6] | SMILES
1 | 50 to 100 nM | ≤ 50 nM | 100 to 500 nM | 50 to 100 nM | 50 to 100 nM | 100 to 500 nM | C=CC(=O)Nc1cc2c(Nc3cccc(Cl)c3F)ncnc2cc1C#C[C@]1(C)CCN(C)C1 [Compound 3, (S)—N-(4-((3-chloro-2-fluorophenyl)amino)-7-((1,3-dimethylpyrrolidin-3-yl)ethynyl)quinazolin-6-yl)acrylamide]
2 | 100 to 500 nM | ≤ 50 nM | 100 to 500 nM | 100 to 500 nM | – | ≤ 50 nM | C=CC(=O)Nc1cc2c(Nc3ccc(Oc4ccccc4)cc3)ncnc2cc1C#C[C@]12C[C@H]1CN(C)C2 [Compound 41, N-(7-(((1S,5R)-3-methyl-3-azabicyclo[3.1.0]hexan-1-yl)ethynyl)-4-((4-phenoxyphenyl)amino)quinazolin-6-yl)acrylamide]
3 | 100 to 500 nM | ≤ 50 nM | 100 to 500 nM | 50 to 100 nM | 50 to 100 nM | 100 to 500 nM | C=CC(=O)Nc1cc2c(Nc3cccc(Cl)c3F)ncnc2cc1C#C[C@@]1(C)CCN(C)C1 [Compound 2, (R)—N-(4-((3-chloro-2-fluorophenyl)amino)-7-((1,3-dimethylpyrrolidin-3-yl)ethynyl)quinazolin-6-yl)acrylamide]
4 | 100 to 500 nM | ≤ 50 nM | – | – | 100 to 500 nM | > 500 nM | C=CC(=O)Nc1cc2c(Nc3ccc(Cl)c(Cl)c3F)ncnc2cc1C#CC1(C)CCOC1 (stereo not shown) [Compound 63, N-(4-((3,4-dichloro-2-fluorophenyl)amino)-7-((3-methyltetrahydrofuran-3-yl)ethynyl)quinazolin-6-yl)acrylamide]
5 | > 500 nM | 50 to 100 nM | – | – | 100 to 500 nM | > 500 nM | C=CC(=O)Nc1cc2c(Nc3cccc(Cl)c3F)ncnc2cc1C#C[C@@]1(C)CCCN(C)C1 [Compound 54, (R)—N-(4-((3-chloro-2-fluorophenyl)amino)-7-((1,3-dimethylpiperidin-3-yl)ethynyl)quinazolin-6-yl)acrylamide]
6 | > 500 nM | 50 to 100 nM | – | – | 100 to 500 nM | > 500 nM | C=CC(=O)Nc1cc2c(Nc3cccc(Cl)c3F)ncnc2cc1C#C[C@@]1(C)CCCN1C [Compound 6, (R)—N-(4-((3-chloro-2-fluorophenyl)amino)-7-((1,2-dimethylpyrrolidin-2-yl)-ethynyl)quinazolin-6-yl)acrylamide]
7 | 100 to 500 nM | > 500 nM | – | – | > 500 nM | > 500 nM | C=C(C)C(=O)Nc1cc2c(Nc3cccc(Cl)c3F)ncnc2cc1C#C[C@@]1(C)CCN(C)C1 [Compound 25, (R)—N-(4-((3-chloro-2-fluorophenyl)amino)-7-((1,3-dimethylpyrrolidin-3-yl)ethynyl)quinazolin-6-yl)methacrylamide]
8 | ≤ 50 nM | > 500 nM | – | – | > 500 nM | > 500 nM | CNC(=O)Nc1cc2c(Nc3cccc(Cl)c3F)ncnc2cc1C#CC1(C)CCN(C)C1 (stereo not shown) [Compound 57, 1-(4-((3-chloro-2-fluorophenyl)amino)-7-((1,3-dimethylpyrrolidin-3-yl)ethynyl)quinazolin-6-yl)-3-methylurea]
9 | > 500 nM | ≤ 50 nM | – | – | ≤ 50 nM | 50 to 100 nM | C=CC(=O)Nc1cc2c(Nc3ccc(OCc4ccccn4)c(Cl)c3)ncnc2cc1C#C[C@@]1(C)CCN(C)C1 [Compound 14, (R)—N-(4-((3-chloro-4-(pyridin-2-ylmethoxy)phenyl)amino)-7-((1,3-dimethylpyrrolidin-3-yl)ethynyl)quinazolin-6-yl)acrylamide]
10 | 100 to 500 nM | ≤ 50 nM | – | – | 50 to 100 nM | > 500 nM | C=CC(=O)Nc1cc2c(Nc3cccc(Cl)c3F)ncnc2cc1C#C[C@]1(C)CCN(C2COC2)C1 [Compound 58, (S)—N-(4-((3-chloro-2-fluorophenyl)amino)-7-((3-methyl-1-(oxetan-3-yl)pyrrolidin-3-yl)ethynyl)quinazolin-6-yl)acrylamide]
11 | > 500 nM | > 500 nM | – | – | > 500 nM | > 500 nM | C=CC(=O)Nc1cc2c(Nc3ccc(OCc4ccccn4)c(Cl)c3)ncnc2cc1C#C[C@H]1[C@H]2CN(C)C[C@@H]12 [Compound 79, N-(4-((3-chloro-4-(pyridin-2-ylmethoxy)phenyl)amino)-7-(((1R,5S,6r)-3-methyl-3-azabicyclo[3.1.0]hexan-6-yl)ethynyl)quinazolin-6-yl)acrylamide]
12 | 50 to 100 nM | ≤ 50 nM | – | – | 100 to 500 nM | 100 to 500 nM | C=CC(=O)Nc1cc2c(Nc3cccc(Cl)c3F)ncnc2cc1C#CC1(C)CCN(C)CC1 [Compound 4, N-(4-((3-chloro-2-fluorophenyl)amino)-7-((1,4-dimethylpiperidin-4-yl)ethynyl)quinazolin-6-yl)acrylamide]
13 | ≤ 50 nM | 100 to 500 nM | – | – | 100 to 500 nM | > 500 nM | COC/C=C/C(=O)Nc1cc2c(Nc3cccc(Cl)c3F)ncnc2cc1C#C[C@@]12C[C@@H]1CN(C)C2 [Compound 21, (E)-N-(4-((3-chloro-2-fluorophenyl)amino)-7-(((1R,5S)-3-methyl-3-azabicyclo[3.1.0]hexan-1-yl)ethynyl)quinazolin-6-yl)-4-methoxybut-2-enamide]
14 | 100 to 500 nM | > 500 nM | – | – | 50 to 100 nM | > 500 nM | CN1C[C@H]2C[C@@]2(C#Cc2cc3ncnc(Nc4cccc(Cl)c4F)c3cc2NC(=O)/C=C/CN2CCCC(C(=O)O)C2)C1 (stereo partly drawn) [Compound 19, 1-[(E)-4-[[4-(3-chloro-2-fluoro-anilino)-7-[2-[(1R,5S)-3-methyl-3-azabicyclo[3.1.0]hexan-1-yl]ethynyl]quinazolin-6-yl]amino]-4-oxo-but-2-enyl]piperidine-3-carboxylic acid]
15 | 100 to 500 nM | ≤ 50 nM | – | – | 50 to 100 nM | 100 to 500 nM | C=CC(=O)Nc1cc2c(Nc3cccc(Cl)c3F)ncnc2cc1C#CC12CC1CN(C)C2 (stereo not shown) [Compound 65, N-(4-((3-chloro-2-fluorophenyl)amino)-7-((3-methyl-3-azabicyclo[3.1.0]hexan-1-yl)ethynyl)quinazolin-6-yl)acrylamide]
16 | 100 to 500 nM | 100 to 500 nM | – | – | 100 to 500 nM | > 500 nM | C=CC(=O)Nc1cc2c(Nc3cccc(Cl)c3F)ncnc2cc1C#C[C@]1(C)CCCN(C)C1 [Compound 53, (S)—N-(4-((3-chloro-2-fluorophenyl)amino)-7-((1,3-dimethylpiperidin-3-yl)ethynyl)quinazolin-6-yl)acrylamide]
17 | > 500 nM | 50 to 100 nM | – | – | ≤ 50 nM | 100 to 500 nM | C=CC(=O)Nc1cc2c(Nc3ccc(OCc4ccccn4)c(Cl)c3)ncnc2cc1C#CC1(C)CCCN(C)C1 (stereo not shown) [Compound 67, N-(4-((3-chloro-4-(pyridin-2-ylmethoxy)phenyl)amino)-7-((1,3-dimethylpiperidin-3-yl)ethynyl)quinazolin-6-yl)acrylamide]
